Details in all cases: Compound concentration 10 µM
Assay [1] has as its target T1, Alpha-2B adrenergic receptor (Homo sapiens) (UniProt P18089).
T1 sequence (whole entry): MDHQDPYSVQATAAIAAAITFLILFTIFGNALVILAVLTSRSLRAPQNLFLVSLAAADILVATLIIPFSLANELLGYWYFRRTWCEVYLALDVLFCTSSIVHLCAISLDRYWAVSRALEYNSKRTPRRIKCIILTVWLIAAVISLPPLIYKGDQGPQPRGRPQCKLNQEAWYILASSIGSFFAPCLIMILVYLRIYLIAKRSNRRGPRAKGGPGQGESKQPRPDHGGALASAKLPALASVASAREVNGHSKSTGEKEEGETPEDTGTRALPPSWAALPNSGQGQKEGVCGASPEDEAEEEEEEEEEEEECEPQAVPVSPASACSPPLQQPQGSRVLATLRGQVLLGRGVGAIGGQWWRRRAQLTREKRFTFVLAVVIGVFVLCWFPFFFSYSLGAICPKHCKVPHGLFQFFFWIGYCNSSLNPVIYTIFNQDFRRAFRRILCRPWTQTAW

The target of assay [2] is T2, Alpha-2C adrenergic receptor (Homo sapiens) (UniProt P18825).
T2 sequence (whole entry): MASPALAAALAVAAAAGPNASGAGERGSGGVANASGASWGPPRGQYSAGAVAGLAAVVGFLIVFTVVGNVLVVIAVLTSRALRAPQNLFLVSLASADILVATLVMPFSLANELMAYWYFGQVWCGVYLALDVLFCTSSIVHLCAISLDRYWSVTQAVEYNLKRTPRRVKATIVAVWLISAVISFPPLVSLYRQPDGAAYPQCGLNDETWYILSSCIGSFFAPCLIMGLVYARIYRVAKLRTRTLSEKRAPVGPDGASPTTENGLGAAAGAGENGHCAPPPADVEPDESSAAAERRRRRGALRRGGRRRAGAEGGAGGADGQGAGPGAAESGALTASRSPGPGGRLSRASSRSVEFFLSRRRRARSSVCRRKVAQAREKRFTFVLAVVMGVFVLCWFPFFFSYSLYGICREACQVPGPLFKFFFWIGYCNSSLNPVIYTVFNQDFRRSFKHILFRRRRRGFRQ

Assay [3] deals with D(1A) dopamine receptor (Homo sapiens) (UniProt P21728).
Assay [4] has as its target D(2) dopamine receptor (Homo sapiens) (UniProt P14416).
Assay [5] concerns the target T3, D(4) dopamine receptor (Homo sapiens) (UniProt P21917).
T3 sequence (whole entry): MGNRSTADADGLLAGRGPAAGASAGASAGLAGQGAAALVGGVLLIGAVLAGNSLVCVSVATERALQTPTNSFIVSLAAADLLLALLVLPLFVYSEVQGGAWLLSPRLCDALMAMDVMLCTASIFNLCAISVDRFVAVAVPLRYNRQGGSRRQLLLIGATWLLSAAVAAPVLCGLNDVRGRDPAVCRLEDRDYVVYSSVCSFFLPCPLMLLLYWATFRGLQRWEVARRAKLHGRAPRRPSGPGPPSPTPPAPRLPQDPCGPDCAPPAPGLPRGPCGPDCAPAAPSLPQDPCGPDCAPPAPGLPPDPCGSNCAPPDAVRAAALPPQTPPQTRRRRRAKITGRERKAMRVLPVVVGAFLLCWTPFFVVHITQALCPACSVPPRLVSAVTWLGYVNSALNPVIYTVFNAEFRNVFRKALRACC

Assay [6] concerns the target Histamine H4 receptor (Homo sapiens) (UniProt Q9H3N8).
For assay [7], the target named is T4, 5-hydroxytryptamine receptor 3A (Homo sapiens) (UniProt P46098).
T4 sequence (whole entry): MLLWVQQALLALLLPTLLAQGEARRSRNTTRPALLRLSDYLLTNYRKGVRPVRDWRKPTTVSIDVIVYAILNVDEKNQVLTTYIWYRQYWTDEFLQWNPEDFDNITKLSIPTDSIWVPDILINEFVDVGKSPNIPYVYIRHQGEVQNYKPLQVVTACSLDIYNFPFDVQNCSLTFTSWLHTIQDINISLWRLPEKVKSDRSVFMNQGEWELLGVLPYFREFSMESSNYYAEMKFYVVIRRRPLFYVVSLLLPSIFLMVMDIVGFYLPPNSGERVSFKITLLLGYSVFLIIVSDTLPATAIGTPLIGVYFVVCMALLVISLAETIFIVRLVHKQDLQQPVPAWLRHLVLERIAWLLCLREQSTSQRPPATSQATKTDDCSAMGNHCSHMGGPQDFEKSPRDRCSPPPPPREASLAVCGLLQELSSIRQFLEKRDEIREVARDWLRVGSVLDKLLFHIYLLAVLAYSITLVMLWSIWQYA

For assay [8], the target named is Sigma intracellular receptor 2 (Homo sapiens) (UniProt Q5BJF2).
Assay [9] deals with Translocator protein (Homo sapiens) (UniProt P30536).
The target of assay [10] is Beta-3 adrenergic receptor (Homo sapiens) (UniProt P13945).
Assay [11] deals with T5, Alpha-1B adrenergic receptor (Homo sapiens) (UniProt P35368).
T5 sequence (whole entry): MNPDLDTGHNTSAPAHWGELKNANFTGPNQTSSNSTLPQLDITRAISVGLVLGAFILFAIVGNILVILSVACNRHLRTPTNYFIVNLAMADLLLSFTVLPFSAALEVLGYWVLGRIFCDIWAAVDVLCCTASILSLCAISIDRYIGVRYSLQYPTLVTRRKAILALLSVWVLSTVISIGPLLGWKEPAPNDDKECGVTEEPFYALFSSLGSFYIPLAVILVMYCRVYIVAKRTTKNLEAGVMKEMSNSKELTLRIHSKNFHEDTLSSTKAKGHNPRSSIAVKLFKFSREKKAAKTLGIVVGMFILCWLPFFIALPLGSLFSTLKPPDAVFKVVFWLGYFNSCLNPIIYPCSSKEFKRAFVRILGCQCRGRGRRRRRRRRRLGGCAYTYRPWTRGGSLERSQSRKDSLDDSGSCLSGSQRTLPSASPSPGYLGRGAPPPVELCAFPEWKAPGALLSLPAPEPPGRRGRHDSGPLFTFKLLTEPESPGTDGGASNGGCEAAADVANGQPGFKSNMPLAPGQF

The target of assay [12] is Sodium-dependent noradrenaline transporter (Homo sapiens) (UniProt P23975).
Sequence of Sodium-dependent noradrenaline transporter (Homo sapiens) (P23975 whole entry): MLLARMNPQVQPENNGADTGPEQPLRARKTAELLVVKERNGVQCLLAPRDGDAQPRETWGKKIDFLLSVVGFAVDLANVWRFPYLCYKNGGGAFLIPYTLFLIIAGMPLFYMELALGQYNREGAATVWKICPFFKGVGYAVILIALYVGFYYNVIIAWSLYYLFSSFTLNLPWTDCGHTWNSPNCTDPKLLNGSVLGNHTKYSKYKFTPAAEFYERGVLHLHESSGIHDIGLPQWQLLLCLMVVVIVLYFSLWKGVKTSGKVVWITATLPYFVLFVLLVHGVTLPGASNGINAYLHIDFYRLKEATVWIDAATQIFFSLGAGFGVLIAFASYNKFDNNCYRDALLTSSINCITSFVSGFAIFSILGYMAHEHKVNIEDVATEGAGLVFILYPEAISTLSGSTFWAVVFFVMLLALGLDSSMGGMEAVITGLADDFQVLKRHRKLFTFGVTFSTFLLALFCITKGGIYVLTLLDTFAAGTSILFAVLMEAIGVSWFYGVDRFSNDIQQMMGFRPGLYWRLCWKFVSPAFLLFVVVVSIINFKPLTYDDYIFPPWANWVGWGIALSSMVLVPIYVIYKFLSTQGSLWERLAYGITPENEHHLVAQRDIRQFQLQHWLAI

Sequence of Translocator protein (Homo sapiens) (P30536 whole entry): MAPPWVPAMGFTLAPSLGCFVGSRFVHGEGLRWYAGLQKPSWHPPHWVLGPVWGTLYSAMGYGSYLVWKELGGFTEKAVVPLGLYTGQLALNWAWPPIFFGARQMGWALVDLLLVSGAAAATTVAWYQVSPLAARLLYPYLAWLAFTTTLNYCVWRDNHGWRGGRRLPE
Sequence of D(1A) dopamine receptor (Homo sapiens) (P21728 whole entry): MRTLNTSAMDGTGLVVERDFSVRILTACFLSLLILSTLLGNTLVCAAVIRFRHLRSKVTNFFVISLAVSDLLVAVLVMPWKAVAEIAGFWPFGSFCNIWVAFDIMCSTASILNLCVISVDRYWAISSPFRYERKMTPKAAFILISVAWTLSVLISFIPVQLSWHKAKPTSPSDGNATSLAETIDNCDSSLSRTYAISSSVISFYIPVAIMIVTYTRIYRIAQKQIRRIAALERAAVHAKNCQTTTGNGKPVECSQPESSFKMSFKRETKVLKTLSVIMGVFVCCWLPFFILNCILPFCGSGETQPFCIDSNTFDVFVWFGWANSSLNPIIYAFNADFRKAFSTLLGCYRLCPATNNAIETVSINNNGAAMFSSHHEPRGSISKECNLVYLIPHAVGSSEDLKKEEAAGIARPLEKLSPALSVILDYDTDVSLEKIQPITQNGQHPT
Sequence of Sigma intracellular receptor 2 (Homo sapiens) (Q5BJF2 whole entry): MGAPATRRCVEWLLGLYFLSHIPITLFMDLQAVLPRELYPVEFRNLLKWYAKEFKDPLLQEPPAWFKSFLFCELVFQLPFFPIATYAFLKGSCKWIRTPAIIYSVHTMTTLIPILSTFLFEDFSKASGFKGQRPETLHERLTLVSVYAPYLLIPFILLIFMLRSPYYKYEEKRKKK
Sequence of Histamine H4 receptor (Homo sapiens) (Q9H3N8 whole entry): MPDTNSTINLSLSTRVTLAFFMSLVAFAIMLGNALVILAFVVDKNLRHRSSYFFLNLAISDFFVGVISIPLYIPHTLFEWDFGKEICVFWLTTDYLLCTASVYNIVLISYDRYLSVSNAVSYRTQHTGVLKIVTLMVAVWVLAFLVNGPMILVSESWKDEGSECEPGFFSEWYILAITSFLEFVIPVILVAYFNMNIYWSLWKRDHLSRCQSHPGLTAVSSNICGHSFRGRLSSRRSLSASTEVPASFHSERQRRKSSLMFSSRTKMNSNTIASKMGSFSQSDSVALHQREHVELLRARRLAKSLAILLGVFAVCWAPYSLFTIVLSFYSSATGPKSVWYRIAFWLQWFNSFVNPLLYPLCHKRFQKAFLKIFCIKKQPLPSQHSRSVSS
Sequence of D(2) dopamine receptor (Homo sapiens) (P14416 whole entry): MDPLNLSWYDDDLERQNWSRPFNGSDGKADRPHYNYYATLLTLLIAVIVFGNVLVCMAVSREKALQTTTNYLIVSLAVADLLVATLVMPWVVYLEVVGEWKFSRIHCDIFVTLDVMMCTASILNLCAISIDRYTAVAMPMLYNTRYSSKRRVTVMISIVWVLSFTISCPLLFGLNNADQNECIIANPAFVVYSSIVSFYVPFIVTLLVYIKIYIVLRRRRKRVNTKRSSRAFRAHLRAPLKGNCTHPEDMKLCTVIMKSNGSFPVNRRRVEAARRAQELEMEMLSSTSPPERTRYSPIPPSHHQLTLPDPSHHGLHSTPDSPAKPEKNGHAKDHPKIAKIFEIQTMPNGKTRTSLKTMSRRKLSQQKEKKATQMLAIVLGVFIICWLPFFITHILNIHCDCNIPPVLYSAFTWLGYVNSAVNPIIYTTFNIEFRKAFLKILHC
Sequence of Beta-3 adrenergic receptor (Homo sapiens) (P13945 whole entry, looked up): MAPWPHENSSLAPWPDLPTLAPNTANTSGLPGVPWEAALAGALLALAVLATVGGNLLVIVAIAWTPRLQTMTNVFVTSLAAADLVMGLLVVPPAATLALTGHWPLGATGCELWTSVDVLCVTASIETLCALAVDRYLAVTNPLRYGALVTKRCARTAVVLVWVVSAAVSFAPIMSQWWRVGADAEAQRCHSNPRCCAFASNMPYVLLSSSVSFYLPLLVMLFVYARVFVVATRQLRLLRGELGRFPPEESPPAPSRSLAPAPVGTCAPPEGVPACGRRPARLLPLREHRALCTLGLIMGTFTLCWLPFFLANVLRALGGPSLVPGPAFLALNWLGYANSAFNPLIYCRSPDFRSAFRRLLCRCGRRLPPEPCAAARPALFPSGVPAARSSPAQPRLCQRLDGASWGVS

A word on the inhibition: it is the drop in the measured response relative to a control, in per cent. With `CCCSc1nc(N[C@@H]2C[C@H]2c2ccc(F)c(F)c2)c2nnn([C@@H]3C[C@H](OCCO)[C@@H](O)[C@H]3O)c2n1`, the inhibition in assay [1] was 41.2%; in [2] it was 15.4%; in assay [3] it was 24%; in [4], 29%; in assay [5] it was 7.98%; in [6], -2.55%. In addition, the inhibition was 4.33% in assay [7], 63.6% in assay [8], 46% in assay [9] and 49.7% in assay [10].
`CCc1cc2c(c(CC)n1)CCC(=O)N2Cc1ccc(-c2ccccc2-c2nnn[nH]2)cc1`: the inhibition in assay [11] was 25.9%; in assay [1], 3.95%; in [2] it was 5.68%; in [3] it was -4.14%; in assay [4], 37.9%; in assay [5], 70%. Besides, the inhibition is 8.33% in assay [7], 8.89% in assay [8], 45.9% in assay [9] and 9.68% in [10].
Regarding `O=C(Cc1ccccc1)Nc1nc2ccc(Cl)cc2c2nc(-c3ccco3)nn12`, the inhibition was -7.34% in assay [11]; 4.67% in assay [1]; 9.95% in assay [2]; 1.93% in assay [4]; 33.2% in assay [5]; 6.75% in [6]. The inhibition is -6.09% in assay [12], -6.83% in [8], 18.7% in assay [9] and -9.26% in assay [10].
Take `CSc1ccc(C(=O)N[C@@H]2CCCC[C@@H]2NC(=O)CNC(=O)c2cc(C(F)(F)F)ccc2NC(=O)NC(C)C)cc1`: the inhibition in assay [11] is -0.4%; in [1] it was 10.8%; in assay [3], -8.17%; in assay [4], 45.7%; in assay [5], 3.27%; in assay [7], -5.92%. Also, the inhibition in assay [8] was 18.9%; in [9], 46.9%; in assay [10], 1.5%.
Turning to `CCCCN(CC)c1nc(C)nc2c1c(C)cn2-c1c(C)cc(C)cc1C`, the inhibition in assay [11] is 14.4%; in [1], 39.7%; in [2] it was -1.9%; in assay [3], 19.2%; in assay [4], 4.03%; in assay [6], 2.86%. Also, the inhibition is -1.19% in assay [7]; -0.04% in [12]; 78.3% in assay [8]; 74.3% in [9]; 41.7% in assay [10].
Take `C/C(=N\NC(=O)[C@@H]1C(=O)NC[C@H]1c1ccccc1)c1cccc(Br)c1`: the inhibition in assay [1] was -7.62%; in assay [2], -7.78%; in assay [3], -9.99%; in [4] it was 7.24%; in [5], 2.24%; in assay [7], -4.26%. Moreover, the inhibition is 11.2% in assay [12], 4.05% in assay [8], 46.9% in assay [9] and 3.81% in assay [10].
Regarding `C[C@H](CO)Nc1nc(SCc2cccc(Cl)c2F)nc2[nH]c(=O)sc12`, the inhibition was 3.03% in [11], -6.29% in assay [3], -1.75% in assay [4] and -1.24% in [10].
As for `CC(C)C[C@H](NC(=O)N1CCCCCC1)C(=O)N[C@H](Cc1cn(C)c2ccccc12)C(=O)N[C@H](Cc1ccccn1)C(=O)O`, the inhibition was 10.1% in [11]; 0.48% in assay [2]; 2.53% in assay [4]; -9.08% in [7]; 9.3% in assay [8]; 25.5% in [9]. In addition, the inhibition in assay [10] is -0.31%.
For the molecule `N#Cc1cccc(C(=O)Nc2cc(-c3ccccc3)nn2-c2ccccc2)c1`, the inhibition in assay [11] is -3.29%; in [1], 0.47%; in assay [4], -0.08%; in assay [5], 4.16%; in assay [8], -8.91%; in assay [10], -5.54%.
On to `COc1ccc(S(=O)(=O)N2c3ccc(Cl)cc3[C@](O)(c3ccccc3Cl)[C@@H]2C(=O)N2CCC[C@H]2C(N)=O)cc1OC`, for which the inhibition in assay [11] is 2.62%; in assay [1], 0.34%; in assay [2], -3.82%; in assay [4], 11.8%; in assay [5], -3.97%; in assay [6] it was 21.7%. The inhibition in assay [7] was -3.87%; in assay [12], 2.92%; in assay [10], 31.7%.
For the molecule `COc1ccc(S(=O)(=O)c2cc(OC)ccc2S(=O)(=O)c2ccc([C@H](C)NS(C)(=O)=O)cc2)cc1`, the inhibition in assay [11] was -4.35%; in assay [1], 0.09%; in [2] it was 7.85%; in assay [3] it was 0.39%; in assay [4], 1.18%; in assay [5], 58.7%. In addition, the inhibition was -2.2% in assay [7]; -0.68% in assay [12]; 32.1% in assay [8]; 25.6% in [9]; 1.41% in [10].
With `CC(C)(N)C(=O)N[C@H](COCc1ccccc1)C(=O)N1CCC2(CC1)CN(S(C)(=O)=O)c1ccccc12`, the inhibition is 11.4% in assay [11]; -5.98% in assay [1]; 3.03% in assay [2]; 22.7% in assay [4]; 4.09% in assay [6]; 17.7% in assay [7]. Moreover, the inhibition in [12] is -2.84%; in [8], 21.1%; in assay [9] it was 9.25%; in [10], 15.2%.
